How the values were obtained:
herpes simplex virus = assay: Antiviral activity against herpes simplex virus in FL cells (multinucleated giant cell formation); type: cell-based; details: FL cell monolayers, sample added 1 h after virus, 36° C., 5% carbon dioxide, 24 hours incubation
Experimental: Antiviral activity of 1,2,3,4,6-pentagalloylglucose against herpes simplex virus was assayed. Procedure:
Monolayers were prepared from dispersed FL cells in Petri dishes of diameter 35 mm, 24 hours prior to the assay. On carrying out the assay, the medium in each dish was poured off and each dish received 1 ml of medium containing herpes simplex virus. The dishes were incubated at 36° C. in a humidified atmosphere containing 5% of gaseous carbon dioxide. After an hour, each dish further received 1 ml of medium and 20-200 μl of an aqueous 1,2,3,4,6-pentagalloylglucose solution. Incubation was continued for 24 hours and then all the dishes were inspected for multinucleated giant cell. Antiviral activity was defined as the minimum concentration of sample at which no multinucleated giant cell appeared.

Acute toxicity in rats = type: in vivo; details: in a usual manner
Experimental: Acute toxicity of 1,2,3,4 6-pentagalloylglucose was assayed using rats in a usual manner.

Compound | Antiviral activity (minimum concentration of sample at which no multinucleated giant cell appeared) (herpes simplex virus) [µg/mL] | minimal effective concentration (herpes simplex virus; read-out: Antiviral activity (minimum concentration of sample at which no multinucleated giant cell appeared)) [µg/mL] | Acute toxicity (Acute toxicity in rats)
1,2,3,4,6-pentagalloylglucose [Product of Example 1] | 26 | – | –
O=C(OCC1OC(OC(=O)c2cc(O)c(O)c(O)c2)C(OC(=O)c2cc(O)c(O)c(O)c2)C(OC(=O)c2cc(O)c(O)c(O)c2)C1OC(=O)c1cc(O)c(O)c(O)c1)c1cc(O)c(O)c(O)c1 (stereo not drawn) [1,2,3,4,6-pentagalloylglucose] | – | 25 | extremely low

From patent US4465673A, “Pentagalloylglucose antiviral composition” (Tanaka; Yasuo, priority 1983, dated 1984)
